What all share (type): cell-based
The subject of assay [1] is PD1-ss+10aa/Gaussia Luciferase. Put plainly: Dox-Induced PD1-ss-Gluc Assay. Conditions: 293FRT/TO cells, read-out: 24 hr Dox Inducible PD1ssGluc 293FRT/TO: Mean IC50. Here is the method: (§1) Transfected cells were selected for resistance to the selectable markers Hygromycin and Blasticidin to create a stable cell line that contained the PD1-ss+10aa/Gaussia Luciferase cDNA insert whose expression was regulated under the T-REx™ system. The day before assay, cells were trypsinized and plated in 384-well tissue culture plates. The next day, compound dilutions in DMSO/media containing doxycycline were added to the wells and incubated at 37° C., 5% CO2.
(§2) For chemical structures that include one or more stereoisomers, but are illustrated without indicating stereochemistry, the assay data refers to a mixture of stereoisomers.

Assay [2] concerns TNFα-FL/Gaussia Luciferase. As to the kind of experiment: Dox Induced TNFα-FL-Gluc Assay. The conditions noted are these: 293FRT/TO cells, read-out: 24 hr Dox Inducible TNFaFLGluc 293FRT/TO: Mean IC50. Here is the method:
as §1, with “TNFα-FL/Gaussia” for “PD1-ss+10aa/Gaussia”, “T-RExTM” for “T-REx™”, “CO2. […] For chemical structures that include one or more stereoisomers, but are illustrated without indicating stereochemistry, the assay data refers to a mixture of stereoisomers.” for “CO2.”

In assay [3] the test system is HER3-ss+4aa/Gaussia Luciferase. As to the kind of experiment: Dox-Induced Her3-ss-Gluc Assay. Conditions: 293FRT/TO cells, read-out: 24 hr Dox Inducible Her3(ss + 4)Gluc 293FRT/TO: Mean IC50. Here is the method: Transfected cells were selected for resistance to the selectable markers Hygromycin and Blasticidin to create a stable cell line that contained the HER3-ss+4aa/Gaussia Luciferase cDNA insert whose expression was regulated under the T-REx™ system. The day before assay, cells were trypsinized and plated in 384-well tissue culture plates. The next day, compound dilutions in DMSO/media containing doxycycline were added to the wells and incubated at 37° C., 5% CO2.
as §2

Assay [4] has as its system IL-2-FL/Gaussia Luciferase. As to the kind of experiment: Dox Induced IL2-FL-Gluc Assay. The conditions noted are these: 293FRT/TO cells, read-out: 24 hr Dox Inducible IL2FLGIuc 293FRT/TO: Mean IC50. Here is the method: as §1, with “IL-2-FL/Gaussia” for “PD1-ss+10aa/Gaussia”, “T-RExTM” for “T-REx™”, “CO2. […] For chemical structures that include one or more stereoisomers, but are illustrated without indicating stereochemistry, the assay data refers to a mixture of stereoisomers.” for “CO2.”

In assay [5] the test system is human multiple myeloma cell line NCI-H929. Put plainly: H929 Cell Viability Assay. The conditions noted are these: 48 hr, NCI-H929 cells, Celltiter-Glo, read-out: 48 hr H929 Viability Celltiter-Glo: Mean EC50. Here is the method:
Plates were incubated at 37° C., 5% CO2 for 48 hours. After 48 hours, Celltiter-Glo® (Promega) was added to each well and luciferase signal was quantified using Tecan Infinite M1000 Pro for cell viability determination.
as §2
(ATP-based viability assays read luminescence as a measure of living cells.)

Assay [6] relates to human multiple myeloma cell line U266B1. As to the kind of experiment: U266 Cell Viability Assay. Conditions: U-266, 48 hr, U266B1 cells, Celltiter-Glo, read-out: 48 hr U266 Viability Celltiter-Glo: Mean EC50. The procedure:
Cells were plated in 384-well tissue culture plates and treated with compound dilutions in DMSO/media. Plates were incubated at 37° C., 5% CO2 for 48 hours. After 48 hours, Celltiter-Glo® (Promega) was added to each well and luciferase signal was quantified using Tecan Infinite M1000 Pro for cell viability determination.
as §2

Where [7] appears, read: 24 hr doxycycline induction, Gaussia luciferase signal.

Data on 19 compounds can be found in US20220153732A1, “PROTEIN SECRETION INHIBITORS” (KEZAR LIFE SCIENCES, priority 2019, published 2022).

Where two headings read alike, the source gives them in different places. Some results are limits rather than exact numbers.

A word on the EC50: it is the concentration giving half of the maximal effect. For the compound `O=C(Nc1nc(C2Cc3ccccc3C2)cs1)c1cccn1CCCc1ccncc1` [Compound A284], the IC50 in assay [1] (setting [7]) worked out at 0.767 µM; in assay [2] (setting [7]) it was 4.07 µM; in assay [3] (setting [7]) it was 1.24 µM; in assay [4] (setting [7]), 2.32 µM. In addition, the 50% effective concentration (EC50) in assay [5] worked out at 4.92 µM; in assay [6], 6.1 µM.
`O=C(Nc1nc(C2CCC2)cs1)c1cccn1Cc1ccncc1` [Compound A31]: the IC50 came out at 0.596 µM in assay [1] (setting [7]), 11.8 µM in assay [2] (setting [7]), 1.63 µM in assay [3] (setting [7]) and 1.34 µM in assay [4] (setting [7]). The EC50 in assay [5] and in assay [6] was > 25 µM in each case.
For `Cc1ccc(/C=C/c2csc(NC(=O)c3cccn3Cc3ccncc3)n2)nc1` [Compound A357], the IC50 in assay [1] (24 hr, doxycycline-induced) came to 0.012 µM; in assay [2] (24 hr, doxycycline-induced) it was 7.48 µM; in assay [3] (24 hr, doxycycline-induced), 2.31 µM; in assay [4] (24 hr, doxycycline-induced) it was 9.07 µM. The EC50 in assay [5] was 10.7 µM; in assay [6], 17.9 µM.
Regarding `COc1ccc(O[C@H]2C[C@H](c3csc(NC(=O)c4cccn4Cc4ccncc4)n3)C2)nc1` [Compound A314], the IC50 in assay [1] (24 hr, doxycycline-induced) stood at 0.047 µM; in assay [2] (24 hr, doxycycline-induced), 1.47 µM; in assay [3] (24 hr, doxycycline-induced), 0.145 µM; in assay [4] (24 hr, doxycycline-induced), 0.424 µM. Besides, the EC50 stood at 9.98 µM in assay [5] and 16 µM in assay [6].
`O=C(Nc1ncc(Cc2ccccc2)s1)c1cccn1Cc1ccncc1` [Compound A34, N-(5-benzylthiazol-2-yl)-1-(pyridin-4-ylmethyl)-1H-pyrrole-2-carboxamide]: the IC50 in assay [1] (setting [7]) was 0.674 µM; in assay [2] (setting [7]), > 25 µM; in assay [3] (setting [7]), 2.42 µM; in assay [4] (setting [7]), 4.24 µM. In addition, the 50% effective concentration (EC50) in assay [5] and in assay [6] was > 25 µM each time.
Take `N#Cc1ccc(/C=C/c2csc(NC(=O)c3cccn3Cc3ccncc3)n2)cc1` [Compound A224, N-(4-(4-cyanostyryl)thiazol-2-yl)-1-(pyridin-4-ylmethyl)-1H-pyrrole-2-carboxamide]: the IC50 in assay [1] (setting [7]) was 0.141 µM; in assay [2] (setting [7]) it was > 25 µM; in assay [3] (setting [7]) it was 0.296 µM; in assay [4] (setting [7]), > 25 µM. The EC50 was 20.5 µM in assay [5] and > 25 µM in assay [6].
With `CC(C)Cc1cnc(NC(=O)c2cccn2Cc2ccncc2)s1` [Compound A57], the IC50 in assay [1] (setting [7]) was 1.42 µM; in assay [2] (setting [7]) it was > 25 µM; in assay [3] (setting [7]) it was 4.2 µM; in assay [4] (setting [7]), 4.93 µM. For the same compound, the EC50 in assay [5] and in assay [6] was > 25 µM throughout.
`O=C(Nc1ncc(Cl)s1)c1cccn1Cc1ccncc1` [Compound B1]: the IC50 in assay [1] (24 hr, doxycycline-induced) is 1.89 µM; in assay [2] (24 hr, doxycycline-induced) it was > 25 µM; in assay [3] (24 hr, doxycycline-induced), 4.32 µM; in assay [4] (24 hr, doxycycline-induced) it was 6.29 µM. The EC50 in assay [5] and in assay [6] was > 25 µM each time.
As for `C/C(=C\c1csc(NC(=O)c2cccn2Cc2ccncc2)n1)c1ccccc1` [Compound A252], the IC50 in assay [1] (setting [7]) came out at 0.53 µM; in assay [2] (setting [7]), 6.93 µM; in assay [3] (setting [7]), 1.13 µM; in assay [4] (setting [7]), 1.28 µM. The EC50 is 14 µM in assay [5] and > 25 µM in assay [6].
In the case of `O=C(Nc1nc(C2CCCN(c3ccccc3)C2)cs1)c1cccn1Cc1ccncc1` (stereo not drawn) [Compound A306, N-(4-(1-phenylpiperidin-3-yl)thiazol-2-yl)-1-(pyridin-4-ylmethyl)-1H-pyrrole-2-carboxamide], the IC50 in assay [1] (24 hr, doxycycline-induced) turned out to be 0.184 µM; in assay [2] (24 hr, doxycycline-induced), 1.79 µM; in assay [3] (24 hr, doxycycline-induced) it was 0.495 µM; in assay [4] (24 hr, doxycycline-induced) it was 0.489 µM. The EC50 in assay [5] was 11.2 µM; in assay [6] it was > 25 µM.
On to `O=C(Nc1nc(C2=Cc3ccccc3C2)cs1)c1cccn1Cc1ccncc1` [Compound A242, N-(4-(1H-inden-2-yl)thiazol-2-yl)-1-(pyridin-4-ylmethyl)-1H-pyrrole-2-carboxamide], for which the IC50 in assay [1] (setting [7]) is 0.281 µM; in assay [2] (setting [7]) it was > 25 µM; in assay [3] (setting [7]), 0.596 µM; in assay [4] (setting [7]), > 25 µM. Further, the EC50 in assay [5] and in assay [6] was > 25 µM throughout.
As to `CC(C)OC(C)(C)c1nc(NC(=O)c2cccn2Cc2ccncc2)sc1Br` [Compound A30], the IC50 worked out at 0.552 µM in assay [1] (setting [7]), 11.8 µM in assay [2] (setting [7]), 0.809 µM in assay [3] (setting [7]) and 0.927 µM in assay [4] (setting [7]). In addition, the values for the EC50 in assay [5] and in assay [6] were 22.7 µM and > 25 µM, respectively.
For `COCc1cnc(NC(=O)c2cccn2Cc2ccncc2)s1` [Compound A94], the IC50 was 14.6 µM in assay [1] (setting [7]), > 25 µM in assay [2] (setting [7]), > 25 µM in assay [3] (setting [7]) and > 25 µM in assay [4] (setting [7]). Moreover, the EC50 in assay [5] and in assay [6] was > 25 µM each time.
For the compound `CC(C)OC(C)(C)c1csc(NC(=O)c2cccn2CC2CNC(=O)C2)n1` (stereo not drawn) [Compound A93, N-(4-(2-isopropoxypropan-2-yl)thiazol-2-yl)-1-((5-oxopyrrolidin-3-yl)methyl)-1H-pyrrole-2-carboxamide], the IC50 was 13.2 µM in assay [1] (setting [7]), > 25 µM in assay [2] (setting [7]), > 25 µM in assay [3] (setting [7]) and > 25 µM in assay [4] (setting [7]). Moreover, the EC50 in assay [5] and in assay [6] was > 25 µM throughout.
`Cc1sc(NC(=O)c2cccn2Cc2ccncc2)nc1C(C)C` [Compound A38]: the IC50 worked out at 0.706 µM in assay [1] (setting [7]), 14.8 µM in assay [2] (setting [7]), 1.2 µM in assay [3] (setting [7]) and 1.41 µM in assay [4] (setting [7]). The EC50 in assay [5] and in assay [6] was > 25 µM in each case.
For `O=C(Nc1nc(C2CC(c3ccccc3)C2)cs1)c1cccn1CCCc1ccncc1` (stereo not drawn) [Compound A287], the IC50 in assay [1] (setting [7]) worked out at 0.088 µM; in assay [2] (setting [7]), 1.16 µM; in assay [3] (setting [7]), 0.181 µM; in assay [4] (setting [7]) it was 0.376 µM. Also, the EC50 in assay [5] was 5.06 µM; in assay [6], > 25 µM.
For `CC(OC(C)(C)c1csc(NC(=O)c2cccn2Cc2ccncc2)n1)c1ccc(Cl)cc1` (stereo not drawn) [Compound A5, N-(4-(2-(1-(4-chlorophenyl)ethoxy)propan-2-yl)thiazol-2-yl)-1-(pyridin-4-ylmethyl)-1H-pyrrole-2-carboxamide], the IC50 in assay [1] (setting [7]) is 0.043 µM; in assay [2] (setting [7]), 0.81 µM; in assay [3] (setting [7]), 0.102 µM; in assay [4] (setting [7]) it was 0.145 µM. Also, the figures for the EC50 in assay [5] and in assay [6] were 2.44 µM and 23.9 µM, respectively.
In the case of `O=C(Nc1nccs1)c1cccn1Cc1ccncc1` [Compound B6], the IC50 in assay [1] (24 hr, doxycycline-induced) is 6.66 µM; in assay [2] (24 hr, doxycycline-induced), > 25 µM; in assay [3] (24 hr, doxycycline-induced) it was > 25 µM; in assay [4] (24 hr, doxycycline-induced), > 25 µM. Also, the concentration giving a half-maximal response (EC50) in assay [5] and in assay [6] was > 25 µM throughout.
As to `O=C(Nc1nc2c(s1)CCCC2)c1cccn1Cc1ccncc1` [Compound A52], the IC50 was 1.36 µM in assay [1] (setting [7]), > 25 µM in assay [2] (setting [7]), 2.83 µM in assay [3] (setting [7]) and 1.95 µM in assay [4] (setting [7]). Further, the concentration for a half-maximal effect (EC50) in assay [5] and in assay [6] was > 25 µM in each case.
